Earlier results on 1 compound are cited in patent US10702472B2, “Production method of edible sustained-release functional material and edible sustained-release functional material” (AOBAKASEI KABUSHIKI KAISHA, priority 2017, dated 2020).

For this series the following is noted: generally known value.

Consider `O=C[C@H](O)[C@@H](O)[C@H](O)[C@H](O)CO` [glucose], for which the collapse temperature was −40 °C.
